Patent US8394950B2, “Analogues of coformycin and their use for treating protozoan parasite infections” (Industrial Research Limited, priority 2006, dated 2013)
Read-outs that look alike come from different tables or passages of the source.

What was measured:
[1] = test system: P. falciparum strain 3D7; experiment: P. falciparum culture kill curves, uptake of tritiated ethanolamine in red blood cells; assay type: cell-based; settings: for IC50: read-out: IC50, prevention of growth of P. falciparum (uptake of tritiated ethanolamine)
Protocol: Human erythrocytes were collected from local volunteers under protocol CCI 00-31 or CCI 99-240 of the Albert Einstein College of Medicine. Cultures of P. falciparum strain 3D7 were grown in RPMI supplemented with 0.5% Albumax II (Invitrogen) and were sorbitol-synchronized twice before initiation of the 72 hour assay in 96-well plates with a total volume of 200 μL at 1% hematocrit and 0.8% parasitemia (100% rings). […] Drugs were dissolved in water and diluted with media prior to addition to cultures. […] After 54 h, cell cultures were frozen and thawed to disrupt cells, and the mixtures were harvested on glass fiber filters. Filters were counted in a Winspectral 1414 scintillation counter. Experiments were done twice with six replicate wells for each experiment. Individual data points more than two standard deviations from the mean were discarded. For some experiments, parasitemias were counted on Giemsa-stained smears of cultures treated in parallel.

[2] = test system: P. falciparum; experiment: Visual inspection of parasitemia in infected red blood cells after 48 hours; assay type: cell-based; settings: for parasitemia after 48 hours: 1% parasitemia initially
[3] = biological target: T1, PfADA (Plasmodium falciparum, UniProt Q8IJA9); experiment: biochemical; assay type: biochemical
T1 sequence (Q8IJA9 1-367): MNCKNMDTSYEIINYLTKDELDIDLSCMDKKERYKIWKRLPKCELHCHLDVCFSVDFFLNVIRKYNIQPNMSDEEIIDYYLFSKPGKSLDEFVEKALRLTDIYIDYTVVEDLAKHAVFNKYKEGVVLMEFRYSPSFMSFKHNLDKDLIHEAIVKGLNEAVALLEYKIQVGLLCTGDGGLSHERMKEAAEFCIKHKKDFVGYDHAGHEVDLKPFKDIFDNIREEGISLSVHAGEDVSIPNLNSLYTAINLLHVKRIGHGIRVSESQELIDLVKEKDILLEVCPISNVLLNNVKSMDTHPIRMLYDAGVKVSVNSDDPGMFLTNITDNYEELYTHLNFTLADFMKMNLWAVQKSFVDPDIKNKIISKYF
Protocol: (§1) Inhibition studies measured both initial and slow-onset rates to establish both the initial dissociation constant (Ki) and the steady-state dissociation constant (Ki*) as previously described [Kicska, G. A., Tyler, P. C., Evans, G. B., Furneaux, R. H., Kim, K., and Schramm, V. L. (2002) J Biol Chem 277, 3219-3225.]. Kd is the lower of these values.
(§2) Concentrations of inhibitors were determined spectrophotometrically using the extinction coefficient of 8250 M^−1cm^−1 at 282 nm.
(§3) (V. L. Schramm, D. C. Baker, Biochemistry, 1985, 24, 641-646). Inhibitor concentrations ranging from 10 μM to 2 nM were used for determination of the inhibition constants and an enzyme concentration of 1 nM. The Ki values were determined by fitting the initial rate and inhibitor concentrations to the following expression of competitive inhibition: (V′o/Vo)=(KM+[S])/(KM+[S]+(KM[I]/Ki)) where V′o is the initial rate in the presence of inhibitor, and Vo is the initial rate in the absence of inhibitor, [I] is the inhibitor concentration, and [S] is the substrate concentration.

[4] = biological target: T2, BtADA (Bos taurus, UniProt P56658); experiment: Inhibition of bovine adenosine deaminase (adenosine to inosine, absorbance change); assay type: biochemical
T2 construct: bovine adenosine deaminase from bovine spleen; purchased Sigma-Aldrich Chemical Company; host or cells: bovine spleen
T2 sequence (P56658 1-363): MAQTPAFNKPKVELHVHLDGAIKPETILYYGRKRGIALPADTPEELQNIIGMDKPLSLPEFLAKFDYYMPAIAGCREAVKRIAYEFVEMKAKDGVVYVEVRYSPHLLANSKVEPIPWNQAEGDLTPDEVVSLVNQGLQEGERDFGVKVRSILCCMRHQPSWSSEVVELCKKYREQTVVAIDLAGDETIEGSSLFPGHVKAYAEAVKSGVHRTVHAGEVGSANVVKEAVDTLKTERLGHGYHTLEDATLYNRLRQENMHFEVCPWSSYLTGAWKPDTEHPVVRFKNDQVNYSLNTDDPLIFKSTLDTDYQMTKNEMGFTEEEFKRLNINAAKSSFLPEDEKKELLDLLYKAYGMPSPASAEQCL
Protocol: as §1, §2, §3

[5] = biological target: T3, HsADA (Homo sapiens, UniProt P00813); experiment: Inhibition of human adenosine deaminase (adenosine to inosine, absorbance change); assay type: biochemical
T3 construct: Human adenosine deaminase from human erythrocytes; purchased Sigma-Aldrich Chemical Company; host or cells: human erythrocytes
T3 sequence (P00813 1-363): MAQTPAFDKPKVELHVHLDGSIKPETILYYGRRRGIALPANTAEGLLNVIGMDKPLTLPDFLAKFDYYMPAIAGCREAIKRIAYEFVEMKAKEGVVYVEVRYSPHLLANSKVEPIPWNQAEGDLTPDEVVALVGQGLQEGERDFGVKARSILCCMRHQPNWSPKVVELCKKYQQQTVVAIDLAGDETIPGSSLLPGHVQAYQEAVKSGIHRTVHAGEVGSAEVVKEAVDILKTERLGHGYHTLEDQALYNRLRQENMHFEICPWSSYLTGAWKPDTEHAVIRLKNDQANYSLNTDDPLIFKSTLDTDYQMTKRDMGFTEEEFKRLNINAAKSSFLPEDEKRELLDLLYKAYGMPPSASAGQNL
Protocol: as §1, §2, §3

[6] = test system: P. falciparum; settings: cited from earlier work; for killing of P. falciparum in culture (in words): in culture / growing in human erythrocytes
[7] = in vivo; cited from earlier work
[8] = test system: Plasmodium knowlesi; settings: single dose, primates with Plasmodium knowlesi; cited from earlier work
[9] = methylthioadenosine (100 μM) plus compound (10 μM)
[10] = methylthioadenosine (100 μM) alone
[11] = initial dissociation constant, 100 μM adenosine, pH 7.0, 30° C., read-out: PfADA Ki
[12] = no detectible slow onset, read-out: dissociation constants (PfADA)

**Q.** With “(8R)-8-hydroxy-3-(5-methylthio-β-D-ribofuranosyl)-3,6,7,8-tetrahydroimidazo[4,5-d][1,3]diazepine [5′-MeS-Coformycin (8)]” as the molecule, how does the “killing of P. falciparum growing in human erythrocytes (in words)” value [1] read?
**A.** kills P. falciparum growing in human erythrocytes

**Q.** What about the IC50 ([1]; strain 3D7 in red blood cells, 72 hour assay, no hypoxanthine supplementation) of the same molecule?
**A.** 62 nM

**Q.** What about the “parasitemia after 48 hours” value [2, 9] of the same molecule?
**A.** 1%

**Q.** And the “parasites in the trophozoite form after 48 hours” value [2, 9]?
**A.** 100%

**Q.** For 5′-methylthioadenosine, which “parasitemia after 48 hours” value [2, 10] is on record?
**A.** 8%

**Q.** What about the “parasites in the ring form after 48 hours” value [2, 10] of the same molecule?
**A.** 97%

**Q.** What does the source list for CSC[C@H]1O[C@@H](n2cnc3c2N=CNC[C@H]3O)C[C@@H]1O [5′-MeS-2′-deoxycoformycin (16), (8R)-3-(2′-deoxy-5′-methylthio-β,D-erythro-pentofuranosyl)-8-hydroxy-3,6,7,8-tetrahydroimidazo[4,5-d][1,3]diazepine]?
**A.** Ki [3, 11]: 2.3 ± 0.8 nM; Ki ([3]; slow onset equilibrium dissociation constant, read-out: PfADA Ki^a): 0.73 ± 0.22 nM; Ki ([4]; read-out: BtADA Ki): > 10000 nM; Ki ([5]; read-out: HsADA Ki): > 10000 nM

**Q.** Which “inhibition of PfADA (in words)” value [3] does the source give for O[C@@H]1CNC=Nc2c1ncn2[C@H]1C[C@H](O)[C@@H](CSc2ccccc2)O1 [5′-PhS-2′-deoxycoformycin (18), (8R)-3-(2′-deoxy-5′-phenylthio-β,D-erythro-pentofuranosyl)-8-hydroxy-3,6,7,8-tetrahydroimidazo[4,5-d][1,3]diazepine] here?
**A.** no detectible slow onset

**Q.** And the Ki [3, 11]?
**A.** 61 ± 11 nM

**Q.** And the Ki [3, 12]?
**A.** 61 nM

**Q.** And the Ki ([4]; read-out: BtADA Ki)?
**A.** > 10000 nM

**Q.** For O=c1[nH]cnc2c([C@@H]3N[C@H](CO)[C@@H](O)[C@H]3O)c[nH]c12 [Immucillin-H], which “time to purine-less death” value ([6]; P. falciparum-infected erythrocytes, simultaneous inhibition of host and parasite PNP) is on record?
**A.** ≤ 24 h

**Q.** With OC[C@H]1O[C@@H](n2cnc3c2NC=NC[C@H]3O)C[C@@H]1O [2′-deoxycoformycin] as the molecule, how does the “toxicity in mammals (in words)” value [7] read?
**A.** highly toxic

**Q.** What about the “effect on parasitemia (in words)” value [8] of the same molecule?
**A.** dramatically reduced parasitemia

**Q.** With OC[C@H]1O[C@@H](n2cnc3c2N=CNC[C@H]3O)[C@H](O)[C@@H]1O [Coformycin] as the molecule, how does the “potency relative to 5′-methylthiocoformycin (times more potent)” value ([3]; PfADA) read?
**A.** about 5 times

**Q.** And the Ki ([3]; PfADA Ki (nM), initial dissociation constant, 100 μM adenosine, pH 7.0, 30° C.)?
**A.** 0.68 ± 0.07 nM

**Q.** What about the Ki ([3]; PfADA Ki^a (nM), slow onset equilibrium dissociation constant) of the same molecule?
**A.** 0.08 ± 0.02 nM

**Q.** What about the Ki ([3]; tightest dissociation constants, slow onset inhibition, range over all three enzymes (BtADA, HsADA, PfADA)) of the same molecule?
**A.** 0.027 to 0.11 nM

**Q.** And the Ki ([4]; BtADA Ki (nM), initial dissociation constant, 100 μM adenosine, pH 7.0, 30° C., >10,000 = no inhibition at 10 μM)?
**A.** 1.1 ± 0.4 nM

**Q.** What about the Ki ([4]; BtADA Ki^a (nM), slow onset equilibrium dissociation constant) of the same molecule?
**A.** 0.06 ± 0.01 nM

**Q.** And the “inhibition of bovine ADA (in words)” value ([4]; mammalian ADAs)?
**A.** inhibiting mammalian ADAs with equivalent potency

**Q.** What about the Ki ([5]; HsADA Ki (nM), initial dissociation constant, 100 μM adenosine, pH 7.0, 30° C., >10,000 = no inhibition at 10 μM) of the same molecule?
**A.** 13.9 ± 3.4 nM

**Q.** And the Ki ([5]; HsADA Ki^a (nM), slow onset equilibrium dissociation constant)?
**A.** 0.11 ± 0.02 nM

**Q.** What about the “inhibition of human ADA (in words)” value ([5]; mammalian ADAs) of the same molecule?
**A.** inhibiting mammalian ADAs with equivalent potency

**Q.** What about the IC50 ([1]; Plasmodium falciparum, 3D7, Erythrocyte, 72 h) of the same molecule?
**A.** 3.5 nM

**Q.** What about the “parasitemia after 48 hours” value [2, 9] of the same molecule?
**A.** 1%

**Q.** And the “parasites in the trophozoite form after 48 hours” value [2, 9]?
**A.** 100%

**Q.** What does the source list for CSC[C@H]1N[C@@H](c2c[nH]c3c(=O)[nH]cnc23)[C@H](O)[C@@H]1O [5′-Methylthio-Immucillin-H]?
**A.** killing of P. falciparum in culture (in words) [6]: able to kill P. falciparum growing in human erythrocytes; killing of P. falciparum in culture (in words) ([6]; listed as 5′-methylthio-Immucillin-H): kill P. falciparum in culture

**Q.** Which results are given for CCCSC[C@H]1O[C@@H](n2cnc3c2N=CNC[C@H]3O)C[C@@H]1O [5′-PrS-2′-deoxycoformycin (17), (8R)-3-(2′-deoxy-5′-propylthio-β,D-erythro-pentofuranosyl)-8-hydroxy-3,6,7,8-tetrahydroimidazo[4,5-d][1,3]diazepine]?
**A.** inhibition of PfADA (in words) [3]: no detectible slow onset; Ki [3, 11]: 12 ± 1 nM; Ki [3, 12]: 12 nM; Ki ([4]; read-out: BtADA Ki): > 10000 nM; Ki ([5]; read-out: HsADA Ki): > 10000 nM
